Data as given in PMC10917775, “Endogenous stimuli-responsive separating microneedles to inhibit hypertrophic scar through remodeling the pathological microenvironment” (Nature Communications, 2024).
Peptide text beside a SMILES is read from it. * marks the point of attachment. Acetyl(5-fluorouracil-1-yl) = O=C(Cn1cc(F)c(=O)[nH]c1=O)*; Methacryloyl = C=C(C)C(=O)*

Legend:
rabbit ear HS model = assay: In vivo HS inhibition study, scar elevation index from H&E sections; set-up: species or system rabbits (Oryctolagus cuniculus); conditions: after the 3rd administration (once a week for 3 weeks), before treatment 3.5 in drug-loaded MNs group, untreated HS group 3.3, 5-Fu injection 120 μg per lesion, mean of n = 3
Procedure: We investigated therapeutic effects of separating MNs on HS model in rabbit ears. Among the 15 rabbits, three rabbits were used as the control group (normal skin, NS), and the other 12 rabbits were used to establish HS model. The rabbit ear HS model was established according to a standard method, i.e., 4 HS lesions on each ear and 96 in total. Briefly, the rabbits were anesthetized with sodium pentobarbital (30 mg/kg) and operated under sterile conditions. Then, 4 round-shaped wounds of 7 mm diameter were created on the ventral surface of each ear, which were kept away from the central auricular artery and the periauricular vein. The epidermis, dermis, and perichondrium in each wound was removed thoroughly. After the procedures, the wounds were washed with 0.1% benzalkonium chloride solution to sterilize. In the following 2 weeks, after the rabbits were anesthetized, the newly formed wound tissues were removed to accelerate the formation of HS. […]
The three rabbits without treatment were taken as the control group (group 1, NS). […] The macroscopic images were recorded on the 21st day (before administration), the 29th day (1 week after the 1st administration), the 36th day (1 week after the 2nd administration), the 43rd day (1 week after the 3rd administration) and the 50th day (1 week follow-up). […]

NIH/3T3 fibroblasts [1] = assay: CCK-8 cell viability / cytotoxicity assay; format: cell-based; conditions: for inhibitory effect on fibroblasts compared among 5-FuA, 5-FuA-Pep-MA and 5-FuA-Pro-Pro: all the concentrations (80, 125, 250 μM), 48 h, CCK-8, one-way ANOVA, n = 4
Procedure: In vitro cell viability and cytotoxicity. The CCK-8 assays were used to detect the cytotoxicity of
5-Fu and 5-Fu derivatives towards NIH/3T3 fibroblasts. Briefly, NIH/3T3 fibroblasts were cultured
with DMEM medium (containing 10% FBS and 1% penicillin-streptomycin) at 37 °C with 5% CO2.
Then, NIH/3T3 fibroblasts were seeded in 96-well plates at a density of 5 × 10^3 cells/well and
cultured for 12 h to adhere to the bottom of the plates. Subsequently, the medium was replaced with
concentrations of 80, 125, 250 μM, respectively. The cells treated with the neat medium were taken
as the control group. After 48 h of incubation, the CCK-8 kit was added, and the absorption of each
well at 450 nm was measured with a microplate reader (Multiskan MK3, ThermoFisher Scientific,
USA) to calculate the cell viability.

[2] = set-up: method as in earlier work; conditions: in blood circulation; ref Oncol. Lett. 2018, 15, 7175; Cancer Res. 1978, 38, 3479; Cancer Biol. Ther., 2012, 13, 1407; Cancer Chemother. Pharmacol. 2013, 71, 351; Biomater. Sci. 2017, 5, 502; cited from earlier work
From the text: Response: Thanks for the questions. […] Corticosteroids could reduce inflammation response, promote vasoconstrictive effect, and inhibit fibroblast proliferation to treat HS.

NIH/3T3 fibroblasts [3] = assay: In vitro wound scratch (migration) assay; format: cell-based; conditions: 80 μM drug with 0.5% FBS, after 48 h of incubation, Image J, n = 3, control almost complete closure within 48 h
Procedure: In vitro wound scratch assay. Wound scratch assays were used to evaluate the migration of
NIH/3T3 fibroblasts were seeded into 24-well plates at a density of 2 × 10^4 cells/well for 8 h. Then,
the sterile pipette tips were used to draw the scratch in the center of the wells, and the cells scratched
off were washed away with PBS for 3 times. 500 μL of drug solutions consisting of 80 μM of 5-

[4] = ROS-responsive cleavage of prodrug by H2O2 (HPLC); format: physicochemical; conditions: PBS with 10, 50, 100 and 300 μM H2O2, 37 °C, 24-120 h, HPLC peak area, n = 3
From the text: pathological microenvironment of HS tissues determined the drug release rate and […]
Indeed, the size, thickness and duration vary in patients with HS, which could affect the amount of drug needed. […]
fibroblasts/myofibroblasts and the more collagen fibers secreted. Therefore, we could adjust the frequency of treatment for different scar features (size, thickness and […]
3. Figure 3: The ROS response of 5-FuA-Pep-MA prodrug with different concentrations of H2O2 should be shown in both concentration and time.
We have revisited the relevant experiment.
Specifically, 5-FuA-Pep-MA prodrug was incubated with PBS containing different concentrations (10, 50, 100 and 300 μM) of H2O2 at 37 ℃, respectively . 50 μL solutio n was taken out at a pres et time (24, 48, 72, 96 and 120 h), which was analy zed by HPLC. […]
and concentration-dependent (Fig. 3g). […]
For the question3: As described in method:  The peak area obtained from the sample without H2O2 was recorded as A0, while the peak area obtained from the sample with H2O2 was recorded as Ac. The degradation rate was calculated by [(A0-Ac)/A0] À 100% to evaluate the ROS response of peptide prodrug […]
A direct observation of more 5-FU with more H2O2, by HPLC or other methods, either in-vitro or in-vivo, would be more convictive. For example, glucose responsive release of insulin was detected by insulin elisa kit, not the degradation of vesicles […]

[5] = tested on: human hypertrophic scar fibroblast (HSFb); assay: Intracellular ROS scavenging (ROS assay kit, DCFH-DA, CLSM); format: cell-based; conditions: HSFb stimulated with ROSup, 5-FuA-Pep-MA 50, 100 and 200 μM, 12 h, with increased concentration
Procedure: The migration of cells was imaged with an inversion microscope at 0, 24 and 48 h. The area of the scratch was analyzed by Image J, and the wound healing rate (WHR) was calculated according to the following equation: WHR (%) = (A0 − At)/A0 × 100%, where A0 and At represented the area of scratch at 0 h and t h, respectively.
Intracellular ROS scavenging. ROS assay kit was used to observe the elimination of intracellular ROS by 5-FuA-Pep-MA. Specifically, HSFbs were seeded in 8-well confocal dishes at a density of 1 × 10^4 cells/well and cultured for 12 h to adhere to the bottom of the dishes. […]
Immunohistochemical, fluorescence and immunofluorescence staining of HS tissues. The ROS levels in HS tissues were measured by the fluorescence and immunofluorescence methods on day
43rd. […] The expression of MMP2 and MMP9 in HS tissues were measured by immunohistochemistry and immunofluorescence methods on day 43rd. […]
RNA sequencing and sample collection. […] RNA integrity was assessed using the RNA Nano 6000 Assay Kit of the Bioanalyzer 2100 system (Agilent Technologies, CA, USA). PCR products were purified (AMPure XP system) and library quality was assessed on the Agilent Bioanalyzer 2100 system. […]
Quality control. Firstly, raw data (raw reads) of fastq format were processed through in-house perl scripts. […]

SMILES | scar elevation index (SEI) (rabbit ear HS model) | cell viability (NIH/3T3 fibroblasts [1]; 250 μM, 48 h incubation, CCK-8, absorption at 450 nm, mean of n = 4) | half-life [2] | wound healing rate (NIH/3T3 fibroblasts [3]) | inhibitory effect on fibroblasts compared among 5-FuA, 5-FuA-Pep-MA and 5-FuA-Pro-Pro (NIH/3T3 fibroblasts [1]) | ROS-responsive cleavage rate [4] | intracellular ROS fluorescence intensity [5]
O=c1[nH]cc(F)c(=O)[nH]1 [5-Fu, 5-Fluorouracil] | 2.2 | 46.9% | 10 to 20 min |  |  |  | 
O=C(O)Cn1cc(F)c(=O)[nH]c1=O [5-FuA, 5-Fuorouracil-1-acetic acid] |  |  |  | 48.3% | no significant difference |  | 
C=C(C)C(=O)NCCCC[C@H](NC(=O)[C@@H]1CCCN1C(=O)[C@@H]1CCCN1C(=O)[C@@H]1CCCN1C(=O)Cn1cc(F)c(=O)[nH]c1=O)C(N)=O [5-FuA-Pep-MA] ({Acetyl(5-fluorouracil-1-yl)}-PPPK(Methacryloyl)-NH2) |  |  |  | 51.6% | no significant difference | positively correlated with H2O2 concentrations and incubation time | significantly reduced
O=C(O)[C@@H]1CCCN1C(=O)[C@@H]1CCCN1C(=O)Cn1cc(F)c(=O)[nH]c1=O [5-FuA-Pro-Pro] |  |  |  | 53.2% | no significant difference |  | 
